# Laboratory results from the supplement of paper PMC6965134.
# Experiment: TIMS collisional cross section (CCS, N2) of the lipid ion; higher = larger ion cross section
# Settings: ionization mode: positive, one isomer drawn
SMILES,TIMS collisional cross section (sample type: Liver),TIMS collisional cross section (sample type: HeLa),TIMS collisional cross section (sample type: plasma)
CCCCC/C=C\C/C=C\C/C=C\C/C=C\CCCC(=O)O[C@H](COC(=O)CCCCCC/C=C\C/C=C\C/C=C\CCCCC)COP(=O)(O)OCCN [PE 20:3_20:4@] (ion (formula + adduct): [C45H76NO8P+H] 1+),280.9 Å²,–,–
CC/C=C\C/C=C\C/C=C\C/C=C\CCCCC(=O)O[C@H](COC(=O)CCCCCCCCCCCCC)COP(=O)([O-])OCC[N+](C)(C)C [PC 14:0@_18:4] (ion (formula + adduct): [C40H72NO8P+H] 1+),–,278.8 Å²,–
CCCCC/C=C\C/C=C\C/C=C\CCCCCCC(=O)O[C@@H](CO)COC(=O)CCCCCCCCCCCCCCC [DG 16:0_20:3_0:0] (ion (formula + adduct): [C39H70O5+NH4] 1+),264.9 Å²,264.8 Å²,–
CCCCC/C=C\C/C=C\C/C=C\CCCCCCC(=O)O[C@H](CO/C=C\CCCCCCCCCCCCCC)COP(=O)(O)OCCN [PE P- 16:0@_20:3] (ion (formula + adduct): [C41H76NO7P+H] 1+),–,275.1 Å²,276.2 Å²
CCCCC/C=C\C/C=C\C/C=C\C/C=C\C/C=C\CCC(=O)O[C@H](COC(=O)CCCCCCCCCCCCCCC)COP(=O)([O-])OCC[N+](C)(C)C [PC 16:0_22:5] (ion (formula + adduct): [C46H82NO8P+H] 1+),–,–,293.3 Å²
CC/C=C\C/C=C\C/C=C\C/C=C\C/C=C\CCCC(=O)O[C@H](COC(=O)CCCCCCCCCCCCCCC)COP(=O)([O-])OCC[N+](C)(C)C [PC 16:0@_20:5] (ion (formula + adduct): [C44H78NO8P+H] 1+),–,–,290.6 Å²
CCCCC/C=C\C/C=C\CCCCCCCC(=O)OC[C@H](COP(=O)([O-])OCC[N+](C)(C)C)OC(=O)CCCCCCCCCCCCCCCCCC [PC 18:2_19:0] (ion (formula + adduct): [C45H86NO8P+H] 1+),294.4 Å²,–,–
CCCCC/C=C\C/C=C\C/C=C\C/C=C\CCCC(=O)O[C@@H](CO)COC(=O)CCCCCCC/C=C\CCCCCCCC [DG 18:1_20:4_0:0] (ion (formula + adduct): [C41H70O5+NH4] 1+),266 Å²,–,265.8 Å²

# More lines, now with the values ahead:
TIMS collisional cross section (sample type: Liver),TIMS collisional cross section (sample type: HeLa),TIMS collisional cross section (sample type: plasma),SMILES
324.9 Å²,–,–,CC/C=C\C/C=C\C/C=C\C/C=C\C/C=C\C/C=C\CCC(=O)OC[C@@H](COC(=O)CCCCCCC/C=C\C/C=C\CCCCC)OC(=O)CCCCCCC/C=C\C/C=C\C/C=C\CC [TG 18:2_18:3_22:6] (ion (formula + adduct): [C61H96O6+NH4] 1+)
–,321.5 Å²,–,CCCCCCCCC/C=C\CCCCCCCC(=O)OC[C@@H](COC(=O)CCCCCCCCCCCCCCC)OC(=O)CCCCCCCCCCCCCCC [TG 16:0_16:0_19:1] (ion (formula + adduct): [C54H102O6+NH4] 1+)
–,292.8 Å²,–,CCCCCC/C=C\CCCCCCCC(=O)OC[C@@H](COC(=O)CCCCCCCCCCC)OC(=O)CCCCCCCCCCCCC [TG 12:0_14:0_16:1] (ion (formula + adduct): [C45H84O6+NH4] 1+)
324.1 Å²,–,–,CC/C=C\C/C=C\C/C=C\CCCCCCCC(=O)OC[C@@H](COC(=O)CCCCCCCCCCCCCCCCC)OC(=O)CCCCCCC/C=C\CCCCCCCC [TG 18:0_18:1_18:3] (ion (formula + adduct): [C57H102O6+NH4] 1+)
–,320.7 Å²,–,CCCCCC/C=C\CCCCCCCC(=O)OC[C@H](COC(=O)CCCCCCCCCCCCCCCCC)OC(=O)CCCCCCCCCCCCCCCC [TG 16:1_17:0_18:0] (ion (formula + adduct): [C54H102O6+NH4] 1+)
–,331.2 Å²,–,CC/C=C\C/C=C\C/C=C\C/C=C\C/C=C\CCCCCC(=O)OC[C@@H](COC(=O)CCCCCCCCCCCCCCC)OC(=O)CCCCCCC/C=C\CCCCCCCCC [TG 16:0_19:1_22:5] (ion (formula + adduct): [C60H104O6+NH4] 1+)
310.2 Å²,–,–,CCCCCC/C=C\CCCCCCCC(=O)OC[C@@H](COC(=O)CCCCCCCCCCCCCCC)OC(=O)CCCCCCC/C=C\CCCCCC [TG 16:0_16:1_16:1] (ion (formula + adduct): [C51H94O6+NH4] 1+)
–,–,340.8 Å²,CCCCC/C=C\C/C=C\CCCCCCCC(=O)OC[C@H](COC(=O)CCCCCCCCCCC/C=C\CCCCCCCC)OC(=O)CCCCCCCCC/C=C\CCCCCCCC [TG 18:2_20:1_22:1] (ion (formula + adduct): [C63H114O6+NH4] 1+)
300.3 Å²,300.7 Å²,300.5 Å²,CCCC/C=C\CCCCCCCC(=O)OC[C@H](COC(=O)CCCCCCC/C=C\CCCCCC)OC(=O)CCCCCCCCCCCCCC [TG 14:1_15:0_16:1] (ion (formula + adduct): [C48H88O6+NH4] 1+)
